Data set [1] concerns HeLa cells. The data set can be described thus: Inhibition of HeLa cell growth (Alamar Blue uptake). In kind it is cell-based. To be noted: Homo sapiens; concentration required to inhibit by 50% the uptake of Alamar Blue by HeLa cell cultures. The text has this:
(§1) Compounds can be evaluated for their ability to inhibit in vitro the growth of HeLa cells, an immortal cell line derived from a human cervical carcinoma commonly used to evaluate the cytotoxicity of potential therapeutic agents. The following data reflect the cytotoxicity of selected examples of the present invention. The values given represent the concentration of test compound required to inhibit by 50% the uptake of Alamar Blue (Biosource International, Camarillo, Calif.) by HeLa cell cultures, which correlates directly with the overall levels of cellular metabolism in the culture, and is generally accepted as an appropriate marker of cell growth. The test was conducted according to the method of Ahmed et al. (J. Immunol. Methods 1994, 170, 211). […] Compounds were similarly evaluated for cell growth inhibition using MCF-7 cells and MCF-7/ADR cells.

Data set [2] concerns MCF-7 cells. Nature of the data set: Cell growth inhibition using MCF-7 cells. The class given is cell-based. To be noted: Homo sapiens, MCF7.
Excerpt: as §1

Data set [3] relates to MCF-7/ADR cells. Nature of the data set: Cell growth inhibition using MCF-7/ADR cells. The class given is cell-based. The note with it: Homo sapiens, NCI/ADR-RES.
Excerpt: as §1

SMILES strings stand for the structures.

As to `COc1ccc(NS(=O)(=O)c2cc(OC)c(OC)c(OC)c2)cc1O` [Example 1, 1-[(3-Hydroxy-4-methoxyphenyl)aminosulfonyl]-3,4,5-trimethoxybenzene], the melting point (as a rule, the temperature, or range, at which the solid turns liquid) was in the range of 145 to 146 °C. Half-maximal inhibition in data set [1] (IC50) was put at 0.15 µM. Besides, inhibition in data set [2] was half-maximal at 0.15 µM (IC50). In addition, the 50% inhibitory concentration (IC50) (in general, the concentration that gives 50% inhibition) in data set [3] is 0.5 µM.

These data come from patent US6583161B1, “Benzenesulfonamides and benzamides as therapeutic agents” (Tularik Inc., priority 1998, dated 2003).
